Structures are written as SMILES. Where only a bound is given, the exact number is not on record here.

The assay addresses T1, human CB1 receptor (Homo sapiens, UniProt P21554).
T1 construct: expressed in transfected cells; membranes
The assay can be described thus: Cannabinoid Receptor-1 functional assay: inhibition of CP55940-induced [35S]GTPγS binding to membranes of CHO-K1 cells expressing human CB1. The class given is biochemical. As to conditions: 3 nM CP55940, hCB1 membranes, [35S]GTPγS SPA; read-out: IC50 value for antagonizing a CB1 receptor agonist. From the text:
Transfection and Cell Culture—The cDNA encoding the human CB1 (Cannabinoid Receptor-1) receptor (GenBank accession number NM_016083) was cloned from a human adipose tissue cDNA library and cloned into the eukaryotic expression vector pcDNA3.1 (Invitrogen).
Chinese Hamster Ovary cells (CHO-K1) stably expressing recombinant human CB1 were generated by transfecting the plasmid containing the coding sequence of the human CB1 receptor in CHO-K1 cells, using lipofectamin, according to the manufacturer instructions. Resistant clones were selected in the presence of 600 μg/ml G418 (Life technology). Stably transfected CHO-K1 cells were maintained in Ham's F-12 culture medium (Invitrogen), supplemented with 10% fetal calf serum (Invitrogen), 100 U/ml penicillin, 100 μg/ml streptomycin (Life Technology), and 600 μg/ml G418.
Cannabinoid Receptor-1 Functional Assay.
Functional activities of the above examples of compounds of the invention were assessed in vitro by measuring their ability to inhibit CP55940-induced [^35S]GTPγS binding to membranes prepared from CHO-K1 cells expressing the human CB1 receptor (described in Transfection and Cell Culture). CP55940 is a well known non-selective CB1 and CB2 receptor agonist (e.g Felder et al., 1995, Molecular Pharmacology, (48) 443-50). Membranes were prepared by a standard procedure. Briefly, cells were harvested using 10 mM EDTA and collected by centrifugation. Pelleted cells were homogenized in ice-cold 20 mM Hepes (pH 7.4),10 mM EDTA and protease inhibitors (Complete protease inhibitor cocktail tablet, Roche) using an Ultra Turrax Homogenizer. The homogenate was centrifuged at 14 000 rpm for 45 min. at 4° C. The resultant pellet was resuspended in the same buffer but with only 0.1 mM EDTA and was again centrifuged at 14 000 rpm for 45 min. at 4° C. The resulting pellet (membranes) was resuspended in 20 mM Hepes (pH 7.4), 0.1 mM EDTA, 2 mM MgCl2 and protease inhibitors and protein concentration was determined by Micro BCA Protein Assay Reagent Kit (Pierce Biotechnology) according to the manufacturer instructions. The [^35S]GYPγS SPA (Scintillation Proximity Assay) binding assay was performed by incubating 5 μg/well hCB1-membranes with 1 nM [^35S]GYPγS (Perkin Elmer—NEG 030H) in the presence of 3 nM of CP55940 and various concentrations of the test compounds at room temperature for 1 hr in 96-well microtiter plates. 0.4 mg/well SPA beads (PVT-WGA; RPNQ0001 Amersham Pharmacia Biotech) were then added and the incubation continued for further 30 min. on an orbital shaker. The assay buffer contained 50 mM HEPES (pH 7.5), 50 mM NaCl, 2.5 mM MgCl2, 0.1% BSA, 1 μM GDP and 100 μg/ml Saponin. Microtiter plates were centrifuged at 1500 rpm for 5 min. and radioactivity was read immediately using a Topcounter (PerkinElmer Life Sciences). Data were analyzed and IC50 values determined by non-linear regression using the Prism software (GraphPad Software, San Diego).
For orientation: Binding of GTPγS marks nucleotide exchange on a G protein.

T1 sequence (P21554 whole entry): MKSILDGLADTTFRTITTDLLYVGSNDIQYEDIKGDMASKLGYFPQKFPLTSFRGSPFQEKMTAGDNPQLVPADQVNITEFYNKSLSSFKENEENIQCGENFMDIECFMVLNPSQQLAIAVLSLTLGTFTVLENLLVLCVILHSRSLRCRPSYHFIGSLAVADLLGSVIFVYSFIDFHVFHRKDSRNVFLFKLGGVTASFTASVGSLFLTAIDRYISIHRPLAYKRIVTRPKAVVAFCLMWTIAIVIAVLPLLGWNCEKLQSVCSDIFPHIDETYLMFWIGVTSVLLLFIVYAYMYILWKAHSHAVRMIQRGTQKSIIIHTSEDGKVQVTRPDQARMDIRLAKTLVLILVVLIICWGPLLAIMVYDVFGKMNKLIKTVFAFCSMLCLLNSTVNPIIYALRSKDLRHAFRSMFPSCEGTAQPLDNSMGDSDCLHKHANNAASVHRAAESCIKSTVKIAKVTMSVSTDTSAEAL

With `CC(C)(NC(=O)c1nn(-c2ccccc2Cl)c(-c2ccc(Cl)cc2)c1CC(=O)O)c1ccc(F)cc1` [Compound [1.1], {1-(2-Chloro-phenyl)-5-(4-chloro-phenyl)-3-[1-(4-fluoro-phenyl)-1-methyl-ethylcarbamoyl]-1H-pyrazol-4-yl}-acetic acid], the IC50 (as a rule, the concentration that gives 50% inhibition) was < 300 nM.
With `C[C@@H](NC(=O)c1nn(-c2ccccc2Cl)c(-c2ccc(Cl)cc2)c1OCC(=O)O)c1ccc(C(F)(F)F)cc1` [Compound [1.3], {1-(2-Chloro-phenyl)-5-(4-chloro-phenyl)-3-[(R)-1-(4-trifluoromethyl-phenyl)-ethylcarbamoyl]-1H-pyrazol-4-yloxy}-acetic acid], the IC50 was < 300 nM.
With `C[C@H](c1ccc(C(F)(F)F)cc1)N(C)C(=O)c1nn(-c2ccccc2Cl)c(-c2ccc(Cl)cc2)c1CC(=O)O` [Compound [1.7], (1-(2-Chloro-phenyl)-5-(4-chloro-phenyl)-3-{methyl-[(R)-1-(4-trifluoromethyl-phenyl)-ethyl]-carbamoyl}-1H-pyrazol-4-yl)-acetic acid], the IC50 is < 300 nM.
Consider `CC(C(=O)O)c1c(C(=O)N(C)[C@H](C)c2ccc(C(F)(F)F)cc2)nn(-c2ccccc2Cl)c1-c1ccc(Cl)cc1` (stereo partly drawn) [Compound [1.11], 2-{1-(2-Chloro-phenyl)-5-(4-chloro-phenyl)-3-{methyl-[(R)-1-(4-trifluoromethyl-phenyl)-ethyl]-carbamoyl}-1H-pyrazol-4-yl}-propionic acid], for which the IC50 was < 300 nM.
The figure for `C[C@H](c1ccc(C(F)(F)F)cc1)N(C)C(=O)c1nn(-c2ccccc2Cl)c(-c2ccc(Cl)cc2)c1C(O)C(=O)O` (stereo partly drawn) [Compound [1.12], (1-(2-Chloro-phenyl)-5-(4-chloro-phenyl)-3-{methyl-[(R)-1-(4-trifluoromethyl-phenyl)-ethyl]-carbamoyl}-1H-pyrazol-4-yl)-2-hydroxyacetic acid] is < 300 nM.
In the case of `CC(NC(=O)c1nn(-c2ccccc2Cl)c(-c2ccc(Cl)cc2)c1Cc1nnn[nH]1)c1ccc(Br)cc1` (centres unmarked) [Compound [2.1], 1-(2-Chloro-phenyl)-5-(4-chloro-phenyl)-4-(1H-tetrazol-5-ylmethyl)-1H-pyrazole-3-carboxylic acid [1-(4-bromo-phenyl)-ethyl]-amide], the IC50 was < 300 nM.
`C[C@@H](NC(=O)c1nn(-c2ccccc2Cl)c(-c2ccc(Cl)cc2)c1OCc1nnn[nH]1)c1ccc(C(F)(F)F)cc1` [Compound [3.1], 1-(2-Chloro-phenyl)-5-(4-chloro-phenyl)-4-(1H-tetrazol-5-ylmethoxy)-1H-pyrazole-3-carboxylic acid [(R)-1-(4-trifluoromethyl-phenyl)-ethyl]-amide]: the half-inhibitory concentration (IC50) was < 300 nM.
For the molecule `C[C@H](Oc1c(C(=O)N[C@H](C)c2ccc(Br)cc2)nn(-c2ccccc2Cl)c1-c1ccc(Cl)cc1)C(=O)O` [[1.2], (S)-2-[3-[(R)-1-(4-Bromo-phenyl)-ethylcarbamoyl]-1-(2-chloro-phenyl)-5-(4-chloro-phenyl)-1H-pyrazol-4-yloxy]-propionic acid], the IC50 lay within 300 to 3000 nM.
For `C[C@@H](Oc1c(C(=O)N[C@H](C)c2ccc(Br)cc2)nn(-c2ccccc2Cl)c1-c1ccc(Cl)cc1)C(=O)O` [[1.4], (R)-2-[3-[(R)-1-(4-Bromo-phenyl)-ethylcarbamoyl]-1-(2-chloro-phenyl)-5-(4-chloro-phenyl)-1H-pyrazol-4-yloxy]-propionic acid], the IC50 is < 300 nM.
Regarding `C[C@@H](NC(=O)c1nn(-c2ccccc2Cl)c(-c2ccc(Cl)cc2)c1CC(=O)O)c1ccc(C(F)(F)F)cc1` [[1.5], {1-(2-Chloro-phenyl)-5-(4-chloro-phenyl)-3-[(R)-1-(4-trifluoromethyl-phenyl)-ethylcarbamoyl]-1H-pyrazol-4-yl}-acetic acid], the IC50 is < 300 nM.
As for `C[C@@H](NC(=O)c1nn(-c2ccccc2Cl)c(-c2ccc(Cl)cc2)c1CC(=O)O)c1ccc(Br)cc1` [[1.6], [3-[(R)-1-(4-Bromo-phenyl)-ethylcarbamoyl]-1-(2-chloro-phenyl)-5-(4-chloro-phenyl)-1H-pyrazol-4-yl]-acetic acid], the IC50 is < 300 nM.

Source of the values: patent US8124634B2, “CB1 receptor modulators” (7TM Pharma A/S, priority 2006, dated 2012).
